Measurements taken from patent publication US12410152B2, “Oxazole and thioazole-type cullin ring ubiquitin ligase compounds and uses thereof” (Proxygen GmbH, priority 2019, dated 2025).

Assays:
[1] = tested on: KBM7 WT cells; test: cells; type: cell-based; conditions: for effect on KBM7 cells in dose-ranging viability assays: WT KBM7, 3-day treatment; for EC50: Homo sapiens, KBM-7, read-out: KBM7_WT
Method: (§1) KBM7 cells with the specified genetic backgrounds were grown in IMDM supplemented with 10% FBS and 1% penicillin/streptomycin (pen/strep). AsPC1, HCT116, NCI-H446 and 293T cells were grown in DMEM 10% FBS and 1% pen/strep. MV4; 11, Jurkat and Be (2) C cells were grown in RPMI 10% FBS 1% pen/strep. KBM7, AsPC1 and HCT116 cells expressing Cas9 were generated using the plasmid Lenti_Cas9_Blasti (Addgene #52962). The lentiviral plasmid lentiGuide-Puro (Addgene #52963) was used to express sgRNAs against the genes UBE2M (in KBM7-Cas9, AsPC1-Cas9 and HCT116-Cas9 cells), UBE2G1 (in KBM7-Cas9 cells) and […] (in KBM7-Cas9 cells). The lentiviral plasmid lentiGuide-Puro-IRES-mCherry (modified from Addgene #52963) was used to express sgRNAs against CUL4A (in KBM7-Cas9 cells). The lentiviral plasmid pLenti-PGK-Hygro-DEST-UBE2M was generated by Gateway cloning (empty destination vector Addgene #19066), and used to generate UBE2M^resc KBM7 cells. […]
(§2) Finally, a total of structurally similar analogs was tested to unravel structure-activity relationship of the identified molecules. To that end, their anti-cancer activity was assayed in WT cells, as well as KBM7 cells deficient in genes identified in the genome-wide CRISPR screens (UBE2M, CUL4B, UBE2G1). Moreover, the compounds were also tested in AsPC1 pancreatic cancer cells (WT or UBE2Mmut), MV4; 11 and Jurkat leukemia cells, Be (2) C neuroblastoma cells, and NCI-H446 lung cancer cells (Table 3 at the end of this document)
(§3) KBM7^WT, mutant KBM7 clones (UBE2M^mut, UBE2M^resc, UBE2G1^mut CUL4A^mut, CUL4B^mut), and 3-day doxycycline pretreated KBM7^iCas9_sgDDB1 cells were seeded at a cell density of 50,000 cells/mL in 96-well plates with DMSO or drug, in triplicates. Drugs used: IC020772.1/IC020772.1X, IC021313.2/IC021313.2X, T6938051/T6938051X or THZ531. Cells were treated for 3 days, after which cell viability was assessed according to manufacturer's protocol (CellTiter Glo, Promega G7570). Survival curves and EC50 values were calculated by best-fit analysis of the log 10 drug concentration to fold change of drug-treated cells over DMSO-treated cells. All survival assays included technical triplicates per sample, per experiment.

[2] = tested on: T1, cyclin K (CCNK) (Homo sapiens); test: CCNK destabilization/degradation (expression proteomics and Western blot); type: cell-based; conditions: wild-type KBM7 cells
T1 construct: endogenous in cells; host or cells: KBM7 cells (WT and UBE2M/CUL4B/UBE2G1 mutant clones)
T1 sequence (O75909 whole entry partner): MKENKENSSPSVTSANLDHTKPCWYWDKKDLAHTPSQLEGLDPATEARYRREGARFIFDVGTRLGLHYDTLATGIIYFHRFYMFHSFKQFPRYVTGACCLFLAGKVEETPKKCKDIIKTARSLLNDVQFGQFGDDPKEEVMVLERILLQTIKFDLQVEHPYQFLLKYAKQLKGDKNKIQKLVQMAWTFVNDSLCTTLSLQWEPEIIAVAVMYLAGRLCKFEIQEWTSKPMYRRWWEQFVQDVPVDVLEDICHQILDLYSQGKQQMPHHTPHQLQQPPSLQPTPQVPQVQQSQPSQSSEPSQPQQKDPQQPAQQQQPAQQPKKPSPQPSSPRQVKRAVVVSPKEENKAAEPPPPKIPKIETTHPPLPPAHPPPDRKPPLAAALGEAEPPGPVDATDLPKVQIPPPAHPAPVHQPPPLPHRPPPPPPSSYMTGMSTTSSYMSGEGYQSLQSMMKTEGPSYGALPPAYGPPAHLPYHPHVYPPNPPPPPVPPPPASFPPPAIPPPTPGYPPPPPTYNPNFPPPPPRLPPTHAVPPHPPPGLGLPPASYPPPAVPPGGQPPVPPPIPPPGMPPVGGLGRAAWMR
T1 sequence (Q9NYV4 whole entry, further chain): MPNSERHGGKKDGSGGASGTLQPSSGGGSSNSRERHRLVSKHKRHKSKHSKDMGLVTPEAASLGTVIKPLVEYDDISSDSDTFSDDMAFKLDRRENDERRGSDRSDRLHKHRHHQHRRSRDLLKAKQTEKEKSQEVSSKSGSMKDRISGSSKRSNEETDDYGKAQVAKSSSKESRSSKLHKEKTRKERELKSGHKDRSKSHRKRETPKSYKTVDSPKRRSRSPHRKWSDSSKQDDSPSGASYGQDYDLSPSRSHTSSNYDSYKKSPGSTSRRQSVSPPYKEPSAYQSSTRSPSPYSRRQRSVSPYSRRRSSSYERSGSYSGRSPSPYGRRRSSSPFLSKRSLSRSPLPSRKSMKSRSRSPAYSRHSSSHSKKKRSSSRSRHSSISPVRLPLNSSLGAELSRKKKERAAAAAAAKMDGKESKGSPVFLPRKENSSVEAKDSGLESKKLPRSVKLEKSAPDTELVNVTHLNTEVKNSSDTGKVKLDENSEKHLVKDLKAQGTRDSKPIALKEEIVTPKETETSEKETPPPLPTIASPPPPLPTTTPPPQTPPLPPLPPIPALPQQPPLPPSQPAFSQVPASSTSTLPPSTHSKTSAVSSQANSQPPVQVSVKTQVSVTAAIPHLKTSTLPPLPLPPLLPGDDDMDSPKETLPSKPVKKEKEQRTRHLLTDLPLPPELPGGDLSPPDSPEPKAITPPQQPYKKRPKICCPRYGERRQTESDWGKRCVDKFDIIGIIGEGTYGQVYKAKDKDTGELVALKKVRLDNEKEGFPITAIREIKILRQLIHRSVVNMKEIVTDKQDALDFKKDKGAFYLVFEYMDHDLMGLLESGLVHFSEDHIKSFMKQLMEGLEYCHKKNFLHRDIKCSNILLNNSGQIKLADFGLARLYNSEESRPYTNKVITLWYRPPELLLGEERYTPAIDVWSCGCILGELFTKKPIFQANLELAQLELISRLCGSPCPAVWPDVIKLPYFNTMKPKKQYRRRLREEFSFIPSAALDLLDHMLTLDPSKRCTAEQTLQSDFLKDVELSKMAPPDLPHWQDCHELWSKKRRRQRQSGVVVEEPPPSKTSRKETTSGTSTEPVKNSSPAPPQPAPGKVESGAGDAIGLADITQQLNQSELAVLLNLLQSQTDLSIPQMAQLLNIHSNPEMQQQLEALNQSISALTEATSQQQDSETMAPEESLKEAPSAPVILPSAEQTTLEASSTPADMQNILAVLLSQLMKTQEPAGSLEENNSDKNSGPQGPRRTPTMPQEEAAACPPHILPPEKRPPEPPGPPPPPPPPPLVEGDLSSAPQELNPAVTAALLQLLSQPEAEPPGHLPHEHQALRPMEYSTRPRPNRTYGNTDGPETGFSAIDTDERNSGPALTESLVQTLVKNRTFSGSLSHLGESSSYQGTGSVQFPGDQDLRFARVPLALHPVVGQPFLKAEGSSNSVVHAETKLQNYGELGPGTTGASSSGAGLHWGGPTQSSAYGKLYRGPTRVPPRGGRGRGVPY
T1 sequence (Q16531 2-1140 limits assumed, further chain): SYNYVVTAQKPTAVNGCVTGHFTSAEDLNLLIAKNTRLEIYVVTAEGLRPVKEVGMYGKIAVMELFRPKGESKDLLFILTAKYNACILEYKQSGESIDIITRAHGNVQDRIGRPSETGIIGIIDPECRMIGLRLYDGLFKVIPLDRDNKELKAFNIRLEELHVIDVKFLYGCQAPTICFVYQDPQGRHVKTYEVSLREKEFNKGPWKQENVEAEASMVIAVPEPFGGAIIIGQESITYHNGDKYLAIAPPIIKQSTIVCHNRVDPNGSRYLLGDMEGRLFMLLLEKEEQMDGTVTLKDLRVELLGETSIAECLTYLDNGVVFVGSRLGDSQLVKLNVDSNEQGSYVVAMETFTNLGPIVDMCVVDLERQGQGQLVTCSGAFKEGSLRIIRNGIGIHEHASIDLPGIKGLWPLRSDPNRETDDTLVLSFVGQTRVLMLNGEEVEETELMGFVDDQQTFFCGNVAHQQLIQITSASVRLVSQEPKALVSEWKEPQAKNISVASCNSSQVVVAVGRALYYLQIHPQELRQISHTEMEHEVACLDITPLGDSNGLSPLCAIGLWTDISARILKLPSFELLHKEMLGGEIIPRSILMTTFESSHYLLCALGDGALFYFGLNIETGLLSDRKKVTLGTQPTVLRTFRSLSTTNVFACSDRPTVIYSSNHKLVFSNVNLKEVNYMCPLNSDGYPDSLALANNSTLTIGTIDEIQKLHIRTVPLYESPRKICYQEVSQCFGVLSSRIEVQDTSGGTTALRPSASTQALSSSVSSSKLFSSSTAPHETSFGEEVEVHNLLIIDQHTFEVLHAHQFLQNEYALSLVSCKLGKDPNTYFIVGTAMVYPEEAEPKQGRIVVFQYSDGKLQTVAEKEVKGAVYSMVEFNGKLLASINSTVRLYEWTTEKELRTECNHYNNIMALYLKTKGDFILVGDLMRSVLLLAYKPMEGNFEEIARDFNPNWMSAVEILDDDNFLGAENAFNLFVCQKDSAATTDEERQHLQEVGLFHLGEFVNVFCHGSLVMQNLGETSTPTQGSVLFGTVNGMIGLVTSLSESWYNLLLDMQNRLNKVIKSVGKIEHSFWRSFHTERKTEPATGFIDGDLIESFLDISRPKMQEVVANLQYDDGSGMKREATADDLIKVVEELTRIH
T1 sequence (Q13620 whole entry partner): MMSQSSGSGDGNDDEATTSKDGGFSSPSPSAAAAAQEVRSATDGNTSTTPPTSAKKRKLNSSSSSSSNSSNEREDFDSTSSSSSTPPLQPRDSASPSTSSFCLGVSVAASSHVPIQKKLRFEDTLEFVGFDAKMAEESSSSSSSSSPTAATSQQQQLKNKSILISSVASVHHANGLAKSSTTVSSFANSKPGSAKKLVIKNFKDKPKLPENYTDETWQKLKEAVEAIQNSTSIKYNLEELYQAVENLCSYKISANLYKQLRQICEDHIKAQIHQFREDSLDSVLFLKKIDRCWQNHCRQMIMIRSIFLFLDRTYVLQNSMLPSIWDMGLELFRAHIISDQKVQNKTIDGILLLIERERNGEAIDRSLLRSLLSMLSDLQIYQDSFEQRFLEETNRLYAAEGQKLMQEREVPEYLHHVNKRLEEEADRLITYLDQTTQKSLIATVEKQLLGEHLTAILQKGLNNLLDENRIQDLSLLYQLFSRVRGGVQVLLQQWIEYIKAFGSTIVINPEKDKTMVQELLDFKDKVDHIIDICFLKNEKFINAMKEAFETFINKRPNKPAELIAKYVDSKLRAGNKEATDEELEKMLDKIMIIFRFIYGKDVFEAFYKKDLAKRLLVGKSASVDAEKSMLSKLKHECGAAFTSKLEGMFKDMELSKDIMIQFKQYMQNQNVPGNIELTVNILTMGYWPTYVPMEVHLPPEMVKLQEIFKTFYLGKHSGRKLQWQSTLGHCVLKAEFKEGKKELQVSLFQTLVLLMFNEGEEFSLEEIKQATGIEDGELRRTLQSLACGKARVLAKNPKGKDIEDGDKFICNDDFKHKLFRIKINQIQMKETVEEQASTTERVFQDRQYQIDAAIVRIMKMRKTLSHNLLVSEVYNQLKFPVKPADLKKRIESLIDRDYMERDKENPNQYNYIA
T1 sequence (P62877 whole entry partner): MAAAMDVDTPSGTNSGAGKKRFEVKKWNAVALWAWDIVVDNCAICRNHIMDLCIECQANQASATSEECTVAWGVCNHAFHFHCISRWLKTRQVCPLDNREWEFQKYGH
Method: (§4) The hypomorphic phenotype of the mutated UBE2M allele in KBM7 cells (KBM7 UBE2M^mut cells) was assessed. In this regard, CRISPR/Cas9-induced mutation of UBE2M inactivated CRL activity including CRL4^CRBN and CRL2^VHL. […] Additionally, CCNK destabilization by all three compounds was validated via time-resolved immunoblots wherein CCNK degradation was evident after two hours (FIG. 19c).
(§5) Subsequently, a total of 53 structurally related analogue compounds in dose-ranging viability assays in KBM7 wildtype- and UBE2M^mut cells was tested to develop a structure-activity relationship for the assayed compounds. This informed on sites amenable for derivatization of analogs (FIG. 20a), and also to the identification of structurally similar small molecules with no measurable activity that are thus suited negative controls. […] CRL activity-dependent degradation of CCNK could be rescued by pharmacologic NAE inhibition and by blocking the ubiquitin activating enzyme UBA1, particularly by pretreating the cells with 1 μM carfilzomib (Selleckchem, S2853), 1 μM MLN4924 (Selleckchem, S7109), 10 μM TAK-243 (MedChemExpress, HY-100487) or 1 μM THZ531 (MedChemExpress HY-103618) (FIG. 19d). Furthermore, treatment with the selective covalent CDK12/13 inhibitor THZ531, which binds to the ATP binding pocket of CDK12/13, rescued CCNK degradation (FIG. 19d) indicating the role of the active site of CDK12/13 for CRL activity-dependent CCNK degradation by the identified compounds (FIG. 19d).
(§6) PBS-washed cell pellets were lysed in 50 mM Tris pH 7.9, 8M Urea and 1% CHAPS and incubated with shaking at 4° C. for at least 30 min. 20 μg of supernatants were run and transferred for detection. Antibodies used: CUL1 (Santa Cruz Biotechnology, sc-1276), CUL2 (Sigma-Aldrich, SAB2501565-100), CUL3 (Cell Signaling Technology, 2759), CUL4A (Cell Signaling Technology, 2699S), CUL4B (Proteintech, 12916-1-AP), CUL5 (Santa Cruz Biotechnology, sc-373822), UBE2M (Santa Cruz Biotechnology, sc-390064), DDB1 (Cell Signaling Technology, 5428S), CCNK (Bethyl, A301-939A), CDK12 (Cell Signaling Technology, 11973S), CDK13 (Bethyl, A301-458A), RBM39 (1:500, Santa Cruz Biotechnology sc-376531), V5 (Cell Signaling Technology, 13202), Ubiquityl-Histone H2A (K119) (Cell Signaling, 8240-20). ACTIN (Sigma-Aldrich, A5441), VINCUL1N (Santa Cruz Biotechnology, sc-25336). Secondary antibodies anti-mouse/rabbit/goat (Jackson ImmunoResearch 115-035-003, 111-035-003 and 705-035-003).
(§7) Comparison of overall proteome-wide changes in KBM7 cells treated with IC020772.1 (2.5 μM), IC021313.2 (7 μM) or T6938051 (3.5 μM) for 5 h and 12h, using quantitative proteomics based on isobaric tagging.

[3] = biological target: T2, DCAF15 (Homo sapiens, UniProt Q66K64); test: DCAF15 stabilization, live-cell HiBit/LgBit bioluminescence screen; type: cell-based; conditions: 10 μM, 293T cells expressing HiBit-DCAF15
T2 construct: expressed in transfected cells; host or cells: 293T cells, DCAF15 knocked out, additionally transduced with LgBit
T2 sequence (Q66K64 whole entry): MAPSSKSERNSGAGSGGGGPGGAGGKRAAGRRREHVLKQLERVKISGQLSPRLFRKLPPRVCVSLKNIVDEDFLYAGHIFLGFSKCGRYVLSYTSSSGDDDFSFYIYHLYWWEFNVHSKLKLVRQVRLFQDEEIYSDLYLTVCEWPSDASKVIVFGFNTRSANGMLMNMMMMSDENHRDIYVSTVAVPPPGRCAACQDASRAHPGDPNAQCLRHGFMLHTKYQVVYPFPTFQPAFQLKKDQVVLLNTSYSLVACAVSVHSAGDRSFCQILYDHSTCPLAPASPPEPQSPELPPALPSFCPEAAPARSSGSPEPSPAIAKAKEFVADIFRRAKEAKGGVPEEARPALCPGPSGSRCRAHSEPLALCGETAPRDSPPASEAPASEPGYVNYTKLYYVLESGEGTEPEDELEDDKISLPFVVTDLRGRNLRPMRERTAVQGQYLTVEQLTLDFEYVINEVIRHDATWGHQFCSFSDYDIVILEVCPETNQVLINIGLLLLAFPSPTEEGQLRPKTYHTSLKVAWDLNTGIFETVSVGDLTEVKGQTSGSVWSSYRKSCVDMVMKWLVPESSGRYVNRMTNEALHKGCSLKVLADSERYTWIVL
From the text: Subsequently, in this context, the E3 ligase substrate receptor (SR) stabilization approach was employed in order to identify novel chemical matter that can bind and chemically re-program the substrate receptor DCAF15. To be able to screen a collection of around 8000 small-molecules, a cellular system was developed that enabled monitoring of DCAF15 levels in live cells in multi-well format. To that end, DCAF15 was first knocked out in 293T cells via CRISPR/Cas9 technology. Then, DCAF15 was stably expressed as a HiBit® fusion protein in these cells. After further transducing these cells with LgBit, this allowed live-cell tracing of DCAF15 levels in 384 well format by measuring bioluminescence (FIG. 13).
In brief, cells were seeded at a concentration of 250′000 cells/ml in DMEM+10% FCS+25 mM Hepes. The luciferase substrate Endurazine was added at concentrations recommended by the manufacturer. Small-molecules were added at a concentration of 10 μM, and their effect on DCAF15 levels was assayed by continuous bioluminescent imaging (measurements were taken every 120 minutes). In total, 8000 compounds were tested.
The known DCAF15 molecular glue indisulam was used as a positive control. In brief, indisulam is known to act as a DCAF15-dependent molecular glue that binds DCAF15 and induced proximity between DCAF15 and RBM39, leading to the degradation of the latter. […]

[4] = tested on: KBM7 CUL4Bmut cells; test: cells; type: cell-based; conditions: Homo sapiens, KBM-7, read-out: KBM7_CUL4B_mut
Method: as §1, §2, §3

[5] = tested on: KBM7 UBE2G1mut cells; test: cells; type: cell-based; conditions: Homo sapiens, KBM-7, read-out: KBM7_UBE2G1_mut
Method: as §1, §2, §3

[6] = tested on: UBE2M mutant KBM7 cells; test: cells; type: cell-based; conditions: for EC50: Homo sapiens, KBM-7, read-out: KBM7_UBE2M_mut
Method: as §1
(§8) Following this observation, it was rationalized that novel small molecule degraders can be identified in an unbiased manner, simply by searching for compounds that lose activity in the absence of UBE2M. 2000 small molecules, mostly of unknown function/target, were tested for their antiproliferative effects in human leukemia cells (KBM7). These cells were either transduced with a control sgRNA (KBM7WT), or with an sgRNA targeting UBE2M, leading to a hypomorph (deletion of six amino acids) with a functional impairment (UBE2Mmut).
as §2, §3

[7] = biological target: T3, cyclin K (CCNK) (Homo sapiens, UniProt Q16531+Q9NYV4); test: CCNK destabilization/degradation (expression proteomics and Western blot); type: cell-based; conditions: for rescue of drug-induced CCNK degradation by pretreatment: 30 min pretreatment before IC020772.1 (2.5 μM, 5h), 1 μM carfilzomib, 1 μM MLN4924, 10 μM TAK-243, 1 μM THZ531
T3 construct: endogenous in cells; host or cells: KBM7 cells (WT and UBE2M/CUL4B/UBE2G1 mutant clones)
T3 sequence (O75909 whole entry partner): as the sequence (O75909 whole entry partner) above
T3 sequence (Q9NYV4 whole entry): as the sequence (Q9NYV4 whole entry, further chain) above
T3 sequence (Q16531 2-1140 limits assumed): as the sequence (Q16531 2-1140 limits assumed, further chain) above
T3 sequence (Q13620 whole entry partner): as the sequence (Q13620 whole entry partner) above
T3 sequence (P62877 whole entry partner): as the sequence (P62877 whole entry partner) above
Method: as §4, §5, §6, §7

[8] = tested on: KBM7 WT and UBE2Mmut cells; test: Primary phenotypic screen, differential viability KBM7 WT vs UBE2M mutant; type: cell-based, human; conditions: 10 μM and 500 nM, 3 days
Method: as §8
KBM7^WT and UBE2M^mut cells were treated with a compound library (2000 cytotoxic diverse small-molecules, mostly of unknown function/target). Briefly, the screening was divided in three parts 1) primary screening, 2) follow up and 3) validation. During the primary screening, cells were treated with 10 μM and 500 nM of every compound. […] After 3 days of treatment, cell viability was measured (CellTiter Glo, Promega). The screen was perform in 384-well plates (Corning 3712) and the reagent/compound dispensing system used was: Echo 520 Liquid Handler, Multidrop™ Combi Reagent Dispenser. Control compounds were included in several wells, in all the plates. Method for validation of IC021313.2, IC020822.1, IC020772.1, T6938051 as described above in (i).

## O=C(CSc1nc2ccccc2[nH]1)Nc1ccccn1 [IC021313.2X]
[1]
  effect on KBM7 cells in dose-ranging viability assays: did not affect KBM7 cells
[2]
  CCNK destabilization: failed to induce pronounced CCNK destabilization

## NS(=O)(=O)c1ccc(S(=O)(=O)Nc2cccc3c(Cl)c[nH]c23)cc1 [indisulam, reference compound]
[3]
  DCAF15 stabilization (relative luciferase signal over time): pronounced stabilization of DCAF15

## O=C(CSc1nc2ccccc2[nH]1)Nc1ccc(Cl)cn1 [Compound Z54609541, 2-((1H-benzo[d]imidazol-2-yl)thio)-N-(5-chloropyridin-2-yl) acetamide]
[4]
  EC50: 11.9 µM
[5]
  EC50: 7.6 µM
[1]
  EC50: 2.41 µM
[6]
  EC50: 24.4 µM

## O=C(CSc1nc2ccccc2[nH]1)Nc1ccc(Br)cn1 [Compound Z201181756, 2-((1H-benzo[d]imidazol-2-yl)thio)-N-(5-bromopyridin-2-yl) acetamide]
[4]
  EC50: 12.6 µM
[5]
  EC50: 6.17 µM
[1]
  EC50: 1.41 µM
[6]
  EC50: 34.7 µM

## Cc1ccc(NC(=O)C2CSCN2C(=O)c2ccc(C)o2)cc1 (stereo not shown) [Compound T6938051X]
[1]
  effect on KBM7 cells in dose-ranging viability assays: did not affect KBM7 cells
[2]
  CCNK destabilization: failed to induce pronounced CCNK destabilization

## CC(C)C[C@H](NC(=O)[C@H](CCc1ccccc1)NC(=O)CN1CCOCC1)C(=O)N[C@@H](Cc1ccccc1)C(=O)N[C@@H](CC(C)C)C(=O)[C@@]1(C)CO1 [carfilzomib, reference compound]
[7]
  rescue of drug-induced CCNK degradation by pretreatment: rescued

## O=C(CSc1nc2ccccc2[nH]1)Nc1ccc(Br)cn1 [IC020822.1]
[8]
  hit in differential viability screen: stood out in terms of fold-change significance

## NS(=O)(=O)OC[C@@H]1C[C@@H](n2ccc3c(N[C@H]4CCc5ccccc54)ncnc32)C[C@@H]1O [MLN4924, reference compound]
[7]
  rescue of drug-induced CCNK degradation by pretreatment: rescued

## NS(=O)(=O)OC[C@H]1C[C@@H](Nc2ccnc3cc(-c4cccc(SC(F)(F)F)c4)nn23)[C@H](O)[C@@H]1O [TAK-243, reference compound]
[7]
  rescue of drug-induced CCNK degradation by pretreatment: rescued

## CN(C)C/C=C/C(=O)Nc1ccc(C(=O)N2CCC[C@@H](Nc3ncc(Cl)c(-c4c[nH]c5ccccc45)n3)C2)cc1 [THZ531, reference compound]
[7]
  rescue of drug-induced CCNK degradation by pretreatment: rescued
[7]; CRISPR-inactivated KBM7 cells
  effect on CCNK upon inactivation of DDB1, UBE2G1 and UBE2M: not affected

## Cc1ncsc1-c1ccc([C@H](C)NC(=O)[C@@H]2C[C@@H](O)CN2C(=O)[C@@H](NC(=O)COCCCOCCNC(=O)C[C@@H]2N=C(c3ccc(Cl)cc3)c3c(sc(C)c3C)-n3c(C)nnc32)C(C)(C)C)cc1 [ARV-771, reference compound]
[6]; KBM7 UBE2M mutant vs WT
  anti-proliferative effect upon mutation of UBE2M: efficacy is significantly abrogated

## CCCn1c2ccccc2c2nnc(SCC(=O)Nc3ccc(Cl)cn3)nc21 [IC020772.1X]
[1]
  effect on KBM7 cells in dose-ranging viability assays: did not affect KBM7 cells
[2]
  CCNK destabilization: failed to induce pronounced CCNK destabilization
